According to ChEMBL document CHEMBL1129195, “New antithrombotic RGD-mimetics with high bioavailability” (1996):

What was measured:
Cavia porcellus [1] = assay: Ex vivo inhibition of collagen-induced platelet aggregation in guinea pig after p.o. administration.
Monkey [2] = assay: Ex vivo inhibition of collagen-induced platelet aggregation in cynomolgus monkey after p.o. administration.; format: functional; details: Cercopithecidae, in Macaca fascicularis, po
Cavia porcellus [3] = assay: Ex vivo inhibition of collagen-induced platelet aggregation in guinea pig after i.v. administration.; format: functional; details: iv
Monkey [4] = assay: Ex vivo inhibition of collagen-induced platelet aggregation in cynomolgus monkey after i.v. administration.; format: functional; details: Cercopithecidae, in Macaca fascicularis, iv

SMILES	ED50 (Cavia porcellus [1])	ED50 (Monkey [2])	ED50 (Cavia porcellus [3])	ED50 (Monkey [4])
CCOC(=O)CCN1CCN(C[C@H]2CN(c3ccc(C(=N)NC(=O)c4ccccc4)cc3)C(=O)O2)CC1	> 10 mg/kg			
CCOC(=O)CN1CCN(C[C@@H]2CN(c3ccc(C(=N)NC(=O)OCC)cc3)C(=O)O2)CC1	0.17 mg/kg	0.7 mg/kg		
CCOC(=O)CCN1CCN(C[C@@H]2CN(c3ccc(C(=N)NC(=O)c4ccccc4)cc3)C(=O)O2)CC1	> 1 mg/kg			
COC(=O)/N=C(/N)c1ccc(N2CC(CN3CCN(CC(=O)OC(C)(C)C)CC3)OC2=O)cc1 (configuration not stated)	> 1 mg/kg			
CC(=O)O/N=C(/N)c1ccc(N2C[C@@H](CN3CCN(CC(=O)O)CC3)OC2=O)cc1	> 10 mg/kg			
N/C(=N/C(=O)c1ccccc1)c1ccc(N2C[C@@H](CN3CCN(CC(=O)O)CC3)OC2=O)cc1	> 10 mg/kg			
CCOC(=O)CN1CCN(C[C@@H]2CN(c3ccc(C(=N)N)cc3)C(=O)O2)CC1	> 1 mg/kg		0.08 mg/kg	
CCOC(=O)CCN1CCN(CC2CN(c3ccc(C(=N)NC(=O)OC)cc3)C(=O)O2)CC1 (configuration not stated)	> 10 mg/kg			
CCOC(=O)CN1CCN(C[C@@H]2CN(c3ccc(C(=N)NC(=O)C(C)C)cc3)C(=O)O2)CC1	0.4 mg/kg	1.3 mg/kg		
CCOC(=O)CN1CCN(CC2CN(c3ccc(C(=N)NC(=O)Oc4ccccc4)cc3)C(=O)O2)CC1 (configuration not stated)	0.2 mg/kg			
CCOC(=O)CN1CCN(C[C@@H]2CN(c3ccc(C(=N)NC(=O)OCc4ccccc4)cc3)C(=O)O2)CC1	< 1 mg/kg	> 1 mg/kg		
CCOC(=O)CN1CCN(C[C@@H]2CN(c3ccc(C(=N)NC(=O)c4cccc(C(F)(F)F)c4)cc3)C(=O)O2)CC1	< 1 mg/kg	> 1 mg/kg		
CCOC(=O)CN1CCN(CC2CN(c3ccc(C(=N)NC(=O)c4ccco4)cc3)C(=O)O2)CC1 (configuration not stated)	< 1 mg/kg	> 1 mg/kg		
CCOC(=O)CN1CCN(C[C@@H]2CN(c3ccc(C(=N)NC(=O)OC)cc3)C(=O)O2)CC1 [GANTOFIBAN]	0.2 mg/kg	0.07 mg/kg		0.5 mg/kg
CCOC(=O)C1CCN(CC2CN(c3ccc(C(=N)NC(=O)c4ccccc4)cc3)C(=O)O2)CC1 (configuration not stated)	10 mg/kg			
CCOC(=O)CN1CCN(C[C@@H]2CN(c3ccc(C(=N)NC(=O)c4ccccc4)cc3)C(=O)O2)CC1	0.32 mg/kg	1.3 mg/kg	0.09 mg/kg	0.13 mg/kg
CCOC(=O)CC1CCN(CC2CN(c3ccc(C(=N)NC(=O)c4ccccc4)cc3)C(=O)O2)CC1 (configuration not stated)	3 mg/kg			
CCOC(=O)CN1CCN(CC2CN(c3ccc(C(=N)NC(=O)OC)cc3)C(=O)O2)CC1 (configuration not stated)	0.4 mg/kg		0.4 mg/kg	
CC(C)(C)OC(=O)CCN1CCN(CC2CN(c3ccc(C(=N)NC(=O)c4ccccc4)cc3)C(=O)O2)CC1 (configuration not stated)	> 10 mg/kg			
CCOC(=O)CC1(O)CCN(CC2CN(c3ccc(C(=N)NC(=O)c4ccccc4)cc3)C(=O)O2)CC1 (configuration not stated)	3 mg/kg			
CCOC(=O)CN1CCN(CC2CN(c3ccc(C(=N)NC(=O)c4cccnc4)cc3)C(=O)O2)CC1 (configuration not stated)			1 mg/kg	
CCOC(=O)CN1CCN(C[C@H]2CN(c3ccc(C(=N)NC(=O)c4ccccc4)cc3)C(=O)O2)CC1	> 1 mg/kg			
CC(C)(C)OC(=O)CN1CCN(C[C@@H]2CN(c3ccc(C(=N)N)cc3)C(=O)O2)CC1			1 mg/kg	
CC(C)(C)OC(=O)CN1CCN(C[C@@H]2CN(c3ccc(C(=N)NC(=O)c4ccccc4)cc3)C(=O)O2)CC1	1 mg/kg	> 1 mg/kg	0.4 mg/kg	
CCOC(=O)CN1CCN(C[C@@H]2CN(c3ccc(C(=N)NC(=O)c4ccc(OC)cc4)cc3)C(=O)O2)CC1	< 1 mg/kg	> 1 mg/kg		
COC(=O)CN1CCN(C[C@@H]2CN(c3ccc(C(=N)NC(=O)OC)cc3)C(=O)O2)CC1	0.1 mg/kg	0.8 mg/kg		
